From US20240279302A1, “OLFACTORY RECEPTOR EXPRESSING METHOD AND RESPONSE MEASUREMENT METHOD” (Kao Corporation, priority 2021, published 2024)

How the values were obtained:
OR2T1 = settings: in the presence of a metal ion (JP-B-6122181); cited from earlier work
consensus OR4K17 = target: T1, consensus OR4K17 (Homo sapiens, UniProt Q8NGC6, A163V/E24Q/F120Y/F158L/G263S/I192T/I205M/I296T/I46V/K226R/L86V/P230S/S297A/V197I/V23I/V81M/V91T); experiment: Luciferase assay, sulfur compounds; format: cell-based
T1 construct: expressed in transfected cells; host or cells: HEK293
T1 sequence (Q8NGC6 with tags, fused parts or gaps V23I/E24Q/I46V/V81M/L86V/V91T/F120Y/F158L/A163V/I192T/V197I/I205M/K226R/P230S/G263S/I296T/S297A): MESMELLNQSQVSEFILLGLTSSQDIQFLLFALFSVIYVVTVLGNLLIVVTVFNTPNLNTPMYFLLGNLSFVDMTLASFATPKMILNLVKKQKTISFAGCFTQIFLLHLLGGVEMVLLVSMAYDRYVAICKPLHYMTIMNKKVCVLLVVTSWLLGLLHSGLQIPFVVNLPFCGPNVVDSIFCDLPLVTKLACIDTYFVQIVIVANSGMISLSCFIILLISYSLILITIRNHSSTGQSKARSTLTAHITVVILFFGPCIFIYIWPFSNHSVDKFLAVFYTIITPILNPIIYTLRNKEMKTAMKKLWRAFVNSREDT

OR2L13 = OR2L13 (Homo sapiens, UniProt Q8N349); settings: JP-A-2020-510436; cited from earlier work
consensus OR6B1 = target: T2, consensus OR6B1 (Homo sapiens, UniProt O95007, C165R/C227R/F212S/I201V/I253T/L3V/L50Q/L96H/N89S/S282A/T195A/V262A); experiment: Luciferase assay, sulfur compounds; format: cell-based; settings: in the presence of a copper ion
T2 construct: expressed in transfected cells; host or cells: HEK293

OR4C15 = OR4C15 (Homo sapiens, UniProt Q8NGM1); settings: JP-A-2020-510436; cited from earlier work
[1] = in the presence of a copper ion

T2 sequence (O95007 whole entry L3V/L50Q/N89S/L96H/C165R/T195A/I201V/F212S/C227R/I253T/V262A/S282A): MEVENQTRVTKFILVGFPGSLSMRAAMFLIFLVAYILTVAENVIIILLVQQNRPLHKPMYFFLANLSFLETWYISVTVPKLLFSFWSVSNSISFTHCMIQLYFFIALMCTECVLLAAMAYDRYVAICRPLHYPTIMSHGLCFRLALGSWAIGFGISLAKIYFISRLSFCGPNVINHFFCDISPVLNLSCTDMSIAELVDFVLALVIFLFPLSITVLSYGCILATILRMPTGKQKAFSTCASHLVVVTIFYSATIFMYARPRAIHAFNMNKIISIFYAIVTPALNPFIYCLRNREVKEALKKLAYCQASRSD
OR4C15, sequence (Q8NGM1 whole entry): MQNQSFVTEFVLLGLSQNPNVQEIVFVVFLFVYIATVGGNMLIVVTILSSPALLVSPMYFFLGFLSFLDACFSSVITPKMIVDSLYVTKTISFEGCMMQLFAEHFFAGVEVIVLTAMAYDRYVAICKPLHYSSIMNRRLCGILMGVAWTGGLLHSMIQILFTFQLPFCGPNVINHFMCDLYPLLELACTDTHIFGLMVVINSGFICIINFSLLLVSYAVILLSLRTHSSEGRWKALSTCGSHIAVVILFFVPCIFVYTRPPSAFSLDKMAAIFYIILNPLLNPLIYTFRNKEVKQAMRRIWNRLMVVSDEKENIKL
OR2L13, sequence (Q8N349 whole entry): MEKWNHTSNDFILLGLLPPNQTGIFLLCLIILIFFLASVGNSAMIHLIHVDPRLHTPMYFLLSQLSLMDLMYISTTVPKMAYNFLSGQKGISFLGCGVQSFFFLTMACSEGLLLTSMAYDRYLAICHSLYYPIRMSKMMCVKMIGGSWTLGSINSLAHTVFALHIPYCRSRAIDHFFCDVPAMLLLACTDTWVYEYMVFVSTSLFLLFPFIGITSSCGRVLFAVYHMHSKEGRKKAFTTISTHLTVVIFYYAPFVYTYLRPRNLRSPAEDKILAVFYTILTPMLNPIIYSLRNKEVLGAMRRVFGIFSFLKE

response of consensus OR6B1 (consensus OR6B1) | Structure (SMILES) | response of OR2T1 (OR2T1) | response of consensus OR4K17 (consensus OR4K17; [1]) | response of OR2L13 (OR2L13) | response of OR4C15 (OR4C15) | EC50 (consensus OR4K17) [µM] | dose dependence of the response of consensus OR4K17 (consensus OR4K17; [1])
 | CS [methyl mercaptan] | respond | responded |  |  |  | 
responded | CSSSC [dimethyl trisulfide] |  |  | respond | respond |  | 
 | CSSC [dimethyl disulfide] |  | responded |  |  | 568 | dose-dependent response
